The record followed here is ChEMBL document CHEMBL1201862, “PubChem BioAssay data set” (2004).

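In this assay, cells in 96-well plates receive the compound at five concentrations for 48 hours. Endpoints are linearly interpolated between the surrounding concentrations. GI50 marks 50% less growth.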 The source made the active and inactive calls. Rule as the data show it: active = GI50 up to about 1.1 µM and inactive = higher. Positions of bridges follow the written chain, without caps; N, C: chain ends. Residues, ends and D or L forms follow the SMILES beside them. Peptide text beside a SMILES is read from it. A value given as a limit tells only on which side of the number the result lay.

Holding throughout (experiment): inhibition of tumour cell growth, NCI panel, 48 h
The test system of assay [1] is OVCAR-5.
The test system of assay [2] is OVCAR-3.
Assay [3] relates to 786-0.
Assay [4] has as its system CCRF-CEM.
In assay [5] the test system is U-251.
Assay [6] deals with M14.
Assay [7] deals with ACHN.
Assay [8] relates to SN12C.
For assay [9], the system named is LOX IMVI.
The subject of assay [10] is NCI-H23.
The test system of assay [11] is KM-20L2.
The test system of assay [12] is SK-OV-3.
In assay [13] the test system is NCI-H522.
Assay [14] deals with HCT-15.
Assay [15] has as its system K562.
Assay [16] concerns T47D.
The subject of assay [17] is MDA-N.
Assay [18] relates to SR.
The subject of assay [19] is CAKI-1.
Assay [20] deals with NCI/ADR-RES.

Regarding `NC(=O)/C(=N\NC(=O)c1cc2ccccc2cc1O)C1C(=O)N(c2ccccc2)N=C1N` (stereo not drawn), the GI50 in assay [1] is 22.2 µM (inactive); in [2], 28 µM (inactive); in assay [3] it was 40 µM (inactive); in [4], 11.7 µM (inactive); in assay [5] it was 30.3 µM (inactive); in assay [6] it was 31.5 µM (inactive). For the same molecule, the GI50 in [7] was 29.9 µM (inactive); in assay [8], 40.5 µM (inactive); in assay [9] it was > 100 µM (inactive); in [10], 20.3 µM (inactive); in assay [11], 32.9 µM (inactive).

On to `O=C(Nc1cc([N+](=O)[O-])cc([N+](=O)[O-])c1)OC1C2CCC1C1OC1C2` (stereo not drawn), for which the GI50 in assay [1] is > 50 µM (inactive); in [12], > 50 µM (inactive); in assay [2], 29.6 µM (inactive); in assay [3], > 50 µM (inactive); in assay [4], > 50 µM (inactive); in assay [5], > 50 µM (inactive). In addition, the GI50 is > 50 µM (inactive) in [6]; > 50 µM (inactive) in assay [7]; 29.1 µM (inactive) in assay [13]; > 50 µM in [14]; > 50 µM (inactive) in assay [15]; > 50 µM (inactive) in [10]. The GI50 in assay [11] was > 50 µM (inactive).

On to `COC(=O)C1CCC(=O)NCCCCC(NC(=O)C(N)CC(=O)O)C(=O)N1` (stereo not drawn) (H-Asp-Lys-Glu-OMe; lactam 2-3; configuration not given here), for which the GI50 in assay [16], in assay [17], in assay [18], in assay [1], in assay [12] and in assay [2] was > 100 µM (inactive) each time. For the same molecule, the GI50 is 82 µM (inactive) in [19]; 71.9 µM (inactive) in [3]; 32.4 µM (inactive) in [4]; > 100 µM (inactive) in [5]; > 100 µM (inactive) in [20]; > 100 µM (inactive) in [6]. Besides, the GI50 was 41.2 µM (inactive) in [7]; > 100 µM (inactive) in assay [13]; > 100 µM in assay [14]; > 100 µM (inactive) in [8]; > 100 µM (inactive) in assay [15]; > 100 µM (inactive) in [9]. In addition, the GI50 in assay [10] was 92.5 µM (inactive).

`C=C(C(=O)OC1C(CO)OC(OCC2CC[C@@H]3C[C@]4(OC(=O)C3=C)C(C)=CC(=O)C24)C(O)C1O)[C@@H]1CCC(CO)C2C(=O)C=C(C)[C@@]2(O)C1` (stereo partly drawn): the GI50 is 2.55 µM (inactive) in assay [16]; 1.44 µM (inactive) in [17]; 0.646 µM (active) in assay [18]; 2.7 µM (inactive) in [1]; 20.4 µM (inactive) in assay [12]; 2.02 µM (inactive) in [2]. The GI50 in assay [19] was 1.36 µM (inactive); in [3], 1.63 µM (inactive); in assay [4], 0.269 µM (active); in assay [5], 4.68 µM (inactive); in [20] it was 2.19 µM (inactive); in assay [6], 2.08 µM (inactive). Further, the GI50 in assay [7] is 1.44 µM (inactive); in assay [13] it was 0.243 µM (active); in [14], 0.631 µM; in [8] it was 1.32 µM (inactive); in assay [15], 0.783 µM (active); in [9], 2.18 µM (inactive). Also, the GI50 in [10] was 1.63 µM (inactive).

As for `CC(C)=CCC/C(=C/CC/C(=C\CCc1ccoc1)C(=O)O)C(=O)O`, the GI50 is > 100 µM (inactive) in [16]; > 100 µM (inactive) in assay [17]; > 10 µM (inactive) in assay [18]; > 100 µM (inactive) in assay [1]; > 100 µM (inactive) in assay [12]; > 100 µM (inactive) in assay [2]. The GI50 in [19], in [3], in assay [4], in assay [5], in [20] and in [6] was > 100 µM (inactive) in each case. In addition, the GI50 in [7] was > 100 µM (inactive); in [13] it was > 100 µM (inactive); in [14], > 100 µM; in assay [8], > 100 µM (inactive); in assay [15], > 100 µM (inactive); in assay [9] it was > 100 µM (inactive). In addition, in [10], the GI50 is > 100 µM (inactive).

Turning to `Cc1ccc([S@+]([O-])c2occc2C=O)cc1`, the GI50 in [16] was 2.43 µM (inactive); in assay [17], 4.44 µM (inactive); in assay [18] it was 1.71 µM (inactive); in [1], 19.2 µM (inactive); in assay [12], 13.6 µM (inactive); in [2], 2.81 µM (inactive). The GI50 in assay [19] was 17.1 µM (inactive); in [3], 3.95 µM (inactive); in assay [4] it was 1.64 µM (inactive); in assay [5], 12.9 µM (inactive); in [20], 11 µM (inactive); in [6], 6.9 µM (inactive). The GI50 in assay [7] was 15.4 µM (inactive); in assay [13] it was 15.4 µM (inactive); in assay [14], 3.49 µM; in assay [8], 7.26 µM (inactive); in [15], 1.85 µM (inactive); in [9] it was 1.81 µM (inactive). Besides, the GI50 in [10] was 14.5 µM (inactive).

Take `CCC(C)C(NC(=O)C(NC(=O)C(CC(N)=O)NC(=O)CN)C(C)O)C(=O)NC(C(=O)NC(C)C(=O)NC(C(=O)NC(CCC(=O)O)C(=O)NC(CC(C)C)C(=O)NC(CC(=O)O)C(=O)NC(C(=O)NC(Cc1ccc(O)cc1)C(=O)N1CCCC1C(=O)O)C(C)O)C(C)C)C(C)C` (stereo not drawn) (H-GNTIVAVELDTYP-OH; configuration not given here): the GI50 in assay [16], in assay [17], in [18], in assay [1], in assay [12] and in assay [2] was > 50 µM (inactive) each time. Besides, the GI50 in assay [19], in assay [3], in assay [4], in [5], in [20] and in assay [6] was > 50 µM (inactive) throughout. For the same molecule, the GI50 in [7] is > 50 µM (inactive); in assay [13], > 50 µM (inactive); in assay [14], > 50 µM; in assay [8], > 50 µM (inactive); in [15] it was > 50 µM (inactive); in [9] it was > 50 µM (inactive). In addition, the GI50 in [10] is > 50 µM (inactive).

`OCCN(CCO)CCn1cnc2c(NCc3ccccc3)ncnc21`: the GI50 in assay [16], in assay [17], in assay [18], in [1], in [12] and in assay [2] was > 100 µM (inactive) throughout. In addition, the GI50 in [19], in assay [3], in assay [4], in [5], in [20] and in assay [6] was > 100 µM (inactive) each time. The GI50 in assay [7] is > 100 µM (inactive); in assay [13], > 100 µM (inactive); in assay [14], > 100 µM; in assay [8], > 100 µM (inactive); in assay [15], > 100 µM (inactive); in assay [9], > 100 µM (inactive). The GI50 in [10] was > 100 µM (inactive).
